The record followed here is US20100028889A1, “COMPANION DIAGNOSTIC ASSAYS FOR CANCER THERAPY” (ABBOTT LABORATORIES, priority 2006, published 2010).

pEC50: −log10 of the molar value. Where two headings read alike, the source gives them in different places. A value given as a limit tells only on which side of the number the result lay.

Holding throughout (experiment): sensitivity of SCLC cell line, procedure of Oltersdorf
Common to all, as to type: cell-based

One assay concerns NCI-H889. The settings on record: Homo sapiens, read-out: sensitivity class by EC50. On the procedure: (§1) The following SCLC cell lines were obtained from ATCC (Manassis, Va.): NCI-H889, NCI-H1963, NCI-H1417, NCI-H146, NCI-H187, DMS53, NCI-H510, NCI-H209, NCI-H211, NCI-H345, NCI-H524, NCI-H69, DMS79, SHP77, NCI-H1688, NCI-H446, NCI-H740, NCI-H1048, NCI-H82, NCI-H196, SW1271, H69AR, NCI-H526, NCI-H865, NCI-H748, NCI-H711, and DMS114. All cells were cultured in the ATCC recommended media at 37° C. in a humidified atmosphere containing 5% CO2. The following leukemia and lymphoma cell lines were obtained from ATCC (Manassis, Va.): MV-4-11, RS4;11, Loucy, KG-1A, DOHH2, Rs11380, CCRF-HSB-2, CCRF-CEM, CEM/C1, Reh, SUP-B15, MOLT-4, SUDHL4, HL-60, RPMI 8226, A3, Daudi, WSU-NHL, Pfeiffer, Jurkat I 9.2, Jurkat, MEG-01, U-937, K-562, and Raji.
(§2) The 27 SCLC cell lines were tested for sensitivity to ABT-737 using the procedure described in Oltersdorf, T., “An inhibitor of Bcl-2 family proteins induces regression of solid tumours”, Nature, 435: 677-681, 2005, with a cell line classified as sensitive if its EC50<5 μM and as resistant if its EC50>5 µM. The sensitive cell line group consisted of NCI-H889, NCI-H1963, NCI-H1417, NCI-H146, DMS 53, NCI-H187, NCI-H510, NCI-H209, NCI-H345, NCI-H526, NCI-H211, NCI-H865, NCI-H524, NCI-H748, DMS 79, NCI-H69, NCI-H711, SHP 77, NCI-H1688, and the resistant cell line group was comprised of NCI-H446, NCI-H740, NCI-H1048, NCI-H82, NCI-H196, SW1271, DMS 114, and NCI-H69AR.
(§3) The 22 SCLC cell lines were tested for sensitivity to ABT-263 using the procedure described in Oltersdorf, T., “An inhibitor of Bcl-2 family proteins induces regression of solid tumours”, Nature, 435: 677-681, 2005, with a cell line classified as sensitive if its EC50<5 µM and as resistant if its EC50>5 μM. The sensitive cell line group consisted of NCI-H146, NCI-H889, NCI-H1963, NCI-H187, NCI-H1417, NCI-H211, NCI-H69, NCI-H209, NCI-H510, DMS 53, DMS 79, NCI-H345, NCI-H1048, SHP 77, NCI-H446 and the resistant cell line group was comprised of NCI-H1688, NCI-H740, NCI-H82, NCI-H69AR, SW1271, DMS 114 and NCI-H 196.

In a further assay the test system is NCI-H1963. The settings on record: Homo sapiens, read-out: sensitivity class by EC50. On the procedure: as §1, §2, §3
Another assay has as its system NCI-H510. Particulars: Homo sapiens, read-out: sensitivity class by EC50. On the procedure:
as §1, §2, §3

The next assay concerns NCI-H211. The settings on record: Homo sapiens, read-out: sensitivity class by EC50. The procedure: as §1, §2, §3
The test system of another assay is NCI-H345. The settings on record: Homo sapiens, read-out: sensitivity class by EC50. On the procedure:
as §1, §2, §3

The next assay concerns DMS 114. The settings on record: Homo sapiens, read-out: sensitivity class by EC50. The procedure: as §1, §2, §3
The next assay concerns SW1271. The settings on record: Homo sapiens, read-out: sensitivity class by EC50. On the procedure: as §1, §2, §3
The next assay has as its system NCI-H1688. The settings on record: Homo sapiens, read-out: sensitivity class by EC50. The procedure:
as §1, §2, §3

A further assay relates to NCI-H209. Particulars: Homo sapiens, read-out: sensitivity class by EC50. The procedure:
as §1, §2, §3

A further assay deals with NCI-H1048. Particulars: Homo sapiens, read-out: sensitivity class by EC50. On the procedure: as §1, §2, §3
Another assay has as its system DMS 79. The settings on record: Homo sapiens, read-out: sensitivity class by EC50. The procedure: as §1, §2, §3
A further assay relates to NCI-H1417. The settings on record: Homo sapiens, read-out: sensitivity class by EC50. On the procedure:
as §1, §2, §3

For the next assay, the system named is NCI-H187. Particulars: Homo sapiens, read-out: sensitivity class by EC50. The procedure: as §1, §2, §3
The test system of a further assay is DMS 53. The settings on record: Homo sapiens, read-out: sensitivity class by EC50. The procedure:
as §1, §2, §3

For another assay, the system named is NCI-H82. Particulars: Homo sapiens, read-out: sensitivity class by EC50. On the procedure: as §1, §2, §3
The test system of a further assay is NCI-H196. Particulars: Homo sapiens. The procedure: as §1, §2, §3
Another assay has as its system SHP 77. Particulars: Homo sapiens, SHP77, read-out: sensitivity class by EC50. The procedure: as §1, §2, §3
The subject of the next assay is NCI-H69AR. Particulars: Homo sapiens, read-out: sensitivity class by EC50. On the procedure:
as §1, §2, §3

A further assay relates to NCI-H146. Particulars: Homo sapiens, read-out: sensitivity class by EC50. The procedure:
as §1, §2, §3

Another assay relates to NCI-H446. The settings on record: Homo sapiens, read-out: sensitivity class by EC50. The procedure: as §1, §2, §3
In the next assay the test system is NCI-H740. The settings on record: Homo sapiens, read-out: sensitivity class by EC50. The procedure: as §1, §2, §3
The next assay has as its system NCI-H69. The settings on record: Homo sapiens, read-out: sensitivity class by EC50. On the procedure:
as §1, §2, §3

With `CC1(C)CCC(c2ccc(Cl)cc2)=C(CN2CCN(c3ccc(C(=O)NS(=O)(=O)c4ccc(N[C@H](CCN5CCOCC5)CSc5ccccc5)c(S(=O)(=O)C(F)(F)F)c4)cc3)CC2)C1` [ABT-263, N-(4-(4-((2-(4-chlorophenyl)-5,5-dimethyl-1-cyclohex-1-en-1-yl)methyl)piperazin-1-yl)benzoyl)-4-(((1R)-3-(morpholin-4-yl)-1-((phenylsulfanyl)methyl)propyl)amino)-3-((trifluoromethyl)sulfonyl)benzenesulfonamide], the pEC50 with NCI-H889 was over 5.30; in the assay on NCI-H1963, over 5.30; in the assay with NCI-H510, over 5.30; with NCI-H211, over 5.30; in the assay with NCI-H345 it was over 5.30; in the assay on DMS 114, under 5.30. Moreover, the pEC50 with SW1271 was under 5.30; with NCI-H1688, under 5.30; with NCI-H209, over 5.30; in the assay on NCI-H1048, over 5.30; with DMS 79, over 5.30; with NCI-H1417 it was over 5.30. The pEC50 was over 5.30 with NCI-H187; over 5.30 in the assay with DMS 53; under 5.30 with NCI-H82; under 5.30 in the assay on NCI-H196 (NCI-H 196, read-out: sensitivity class by EC50); over 5.30 with SHP 77; under 5.30 with NCI-H69AR. In addition, the pEC50 with NCI-H146 is over 5.30; in the assay with NCI-H446, over 5.30; with NCI-H740 it was under 5.30; in the assay with NCI-H69, over 5.30.

As to `CN(C)CC[C@H](CSc1ccccc1)Nc1ccc(S(=O)(=O)NC(=O)c2ccc(N3CCN(Cc4ccccc4-c4ccc(Cl)cc4)CC3)cc2)cc1[N+](=O)[O-]` [ABT-737, N-(4-(4-((4′-chloro(1,1′-biphenyl)-2-yl)methyl)piperazin-1-yl)benzoyl)-4-(((1R)-3-(dimethylamino)-1-((phenylsulfanyl)methyl)propyl)amino)-3-nitrobenzenesulfonamide], the pEC50 in the assay on NCI-H889 is over 5.30; in the assay on NCI-H1963 it was over 5.30; in the assay with NCI-H510 it was over 5.30; in the assay on NCI-H211, over 5.30; in the assay on NCI-H345 it was over 5.30; in the assay on DMS 114, under 5.30. Besides, the negative-log EC50 (pEC50) was under 5.30 in the assay on SW1271; over 5.30 in the assay on NCI-H1688; over 5.30 in the assay with NCI-H209; under 5.30 in the assay on NCI-H1048; over 5.30 in the assay on DMS 79; over 5.30 with NCI-H1417. In addition, the pEC50 in the assay on NCI-H187 was over 5.30; in the assay with DMS 53, over 5.30; in the assay with NCI-H82 it was under 5.30; in the assay on NCI-H196 (read-out: sensitivity class by EC50), under 5.30; in the assay with SHP 77, over 5.30; with NCI-H69AR, under 5.30. Further, the pEC50 in the assay with NCI-H146 was over 5.30; in the assay with NCI-H446, under 5.30; with NCI-H740 it was under 5.30; in the assay with NCI-H69, over 5.30.

Usually pEC50 stands for the EC50 on a negative log10 scale, so that one unit is a factor of ten.
